Results on 4 molecules are retold here after patent US8063218B2, “Imidazopyridine inhibitors of IAP” (Genentech, Inc., priority 2006, dated 2011).

Structures are written as SMILES.

The assay concerns the target T1, MLXBIR3SG (Homo sapiens, UniProt Q96CA5, S150G).
T1 sequence (Q96CA5 with tags, fused parts or gaps S150G limits assumed): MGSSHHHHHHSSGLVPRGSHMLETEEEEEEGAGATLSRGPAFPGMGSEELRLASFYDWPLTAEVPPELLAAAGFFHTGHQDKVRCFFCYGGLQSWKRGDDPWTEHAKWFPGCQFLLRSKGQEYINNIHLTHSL
As to the kind of experiment: Fluorescence Polarization Peptide Binding Assay (competition with AVP-diPhe-FAM probe). The note with it: competition: MLXBIR3SG at 30 nM, 5 nM AVP-diPhe-FAM probe; Ki determined from the IC50 values. As to the method: In the following experiments was used a chimeric BIR domain referred to as MLXBIR3SG in which 11 of 110 residues correspond to those found in XIAP-BIR3, while the remainder correspond to ML-IAP-BIR. […] The improved caspase-9 inhibition of the chimeric BIR domain MLXBIR3SG has been correlated with increased inhibition of doxorubicin-induced apoptosis when transfected into MCF7 cells. MLXBIR3SG sequence:
Fluorescence Polarization Peptide Binding Assay
Polarization experiments were performed on an Analyst HT 96-384 (Molecular Devices Corp.) according to the procedure of Keating, S. M., Marsters, J, Beresini, M., Ladner, C., Zioncheck, K., Clark, K., Arellano, F., and Bodary., S. (2000) in Proceedings of SPIE: In Vitro Diagnostic Instrumentation (Cohn, G. E., Ed.) pp 128-137, Bellingham, Wash. Samples for fluorescence polarization affinity measurements were prepared by addition of 1:2 serial dilutions starting at a final concentration of 5 μM of MLXBIR3SG in polarization buffer (50 mM Tris [pH 7.2], 120 mM NaCl, 1% bovine globulins 5 mM DTT and 0.05% octylglucoside) to 5-carboxyflourescein-conjugated AVPdi-Phe-NH2 (AVP-diPhe-FAM) at 5 nM final concentration.
The reactions were read after an incubation time of 10 minutes at room temperature with standard cut-off filters for the fluorescein fluorophore (λex=485 nm; λem=530 nm) in 96-well black HE96 plates (Molecular Devices Corp.). Fluorescence values were plotted as a function of the protein concentration, and the IC50s were obtained by fitting the data to a 4-parameter equation using Kaleidograph software (Synergy software, Reading, Pa.). Competition experiments were performed by addition of the MLXBIR3SG at 30 nM to wells containing 5 nM of the AVP-diPhe-FAM probe as well as 1:3 serial dilutions of antagonist compounds starting at a concentration of 300 μM in the polarization buffer. Samples were read after a 10-minute incubation. Fluorescence polarization values were plotted as a function of the antagonist concentration, and the IC50 values were obtained by fitting the data to a 4-parameter equation using Kaleidograph software (Synergy software, Reading, Pa.). Inhibition constants (Ki) for the antagonists were determined from the IC50 values.
(In fluorescence polarisation assays a small probe gives low polarisation when free and higher when bound to something large.)
As to `CN[C@@H](C)C(=O)N[C@H](C(=O)N1CCC[C@H]1c1cn2cccc(-c3ccc([N+](=O)[O-])cc3)c2n1)C1CCOCC1` [Compound 8], the Ki – broadly, the equilibrium dissociation constant of an inhibitor or competing ligand from its target – stood at 2310 nM.
Then `CN[C@@H](C)C(=O)N[C@H](C(=O)N1CCC[C@H]1c1cn2c(-c3ccccc3)cccc2n1)C1CCOCC1` [Compound 1], with 89.1 nM; and `CN[C@@H](C)C(=O)N[C@H](C(=O)N1CCC[C@H]1c1cn2cccc(-c3ccc(N(C)C)cc3)c2n1)C1CCOCC1` [Compound 7], with 18900 nM.
Then `CN[C@@H](C)C(=O)N[C@H](C(=O)N1CCC[C@H]1c1cn2cccc(-c3cccc4ccccc34)c2n1)C1CCOCC1` [Compound 20], with 1830 nM.
